Measurements published in ChEMBL document CHEMBL1149268, “Structure-based design of potent and selective cell-permeable inhibitors of human beta-secretase (BACE-1)” (J Med Chem, 2004).
Activity calls are given as the source filed them. No cut-off for these calls is given here.

What was measured:
[1] = target: T1, Beta-secretase 2 (Homo sapiens) (UniProt Q9Y5Z0); test: (§1) Inhibition of BACE2
T1 sequence (whole entry): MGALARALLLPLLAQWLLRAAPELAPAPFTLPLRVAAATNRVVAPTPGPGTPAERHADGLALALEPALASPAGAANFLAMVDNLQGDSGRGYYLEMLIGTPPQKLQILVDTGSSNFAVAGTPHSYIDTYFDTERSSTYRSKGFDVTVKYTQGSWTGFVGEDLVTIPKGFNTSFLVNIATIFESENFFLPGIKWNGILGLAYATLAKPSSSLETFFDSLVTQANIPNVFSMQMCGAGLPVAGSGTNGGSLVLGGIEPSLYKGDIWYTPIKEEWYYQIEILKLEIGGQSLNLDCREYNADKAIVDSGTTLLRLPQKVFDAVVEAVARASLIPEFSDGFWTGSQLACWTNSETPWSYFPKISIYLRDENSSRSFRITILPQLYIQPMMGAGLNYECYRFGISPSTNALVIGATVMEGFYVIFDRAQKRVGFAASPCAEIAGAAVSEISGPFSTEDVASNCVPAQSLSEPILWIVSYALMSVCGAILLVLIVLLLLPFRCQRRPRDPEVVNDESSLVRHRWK

Renin = target: T2, Renin (Homo sapiens, UniProt P00797); test: Inhibition of renin
T2 sequence (P00797 whole entry): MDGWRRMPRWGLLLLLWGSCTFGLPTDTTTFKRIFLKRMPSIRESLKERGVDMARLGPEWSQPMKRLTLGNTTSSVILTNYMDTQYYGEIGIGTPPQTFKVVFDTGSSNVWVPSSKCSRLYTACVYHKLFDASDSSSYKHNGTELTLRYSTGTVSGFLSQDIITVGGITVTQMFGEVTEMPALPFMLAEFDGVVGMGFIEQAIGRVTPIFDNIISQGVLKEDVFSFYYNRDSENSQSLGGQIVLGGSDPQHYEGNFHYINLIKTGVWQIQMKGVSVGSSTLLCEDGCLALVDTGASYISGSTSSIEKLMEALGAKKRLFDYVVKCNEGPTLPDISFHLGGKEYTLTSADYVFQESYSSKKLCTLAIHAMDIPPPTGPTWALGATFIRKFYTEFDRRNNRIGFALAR

Beta-secretase 1 [2] = target: T3, Beta-secretase 1 (Homo sapiens, UniProt P56817)
Beta-secretase 1 [3] = target: T3, Beta-secretase 1; remark: listed apart in the source
Beta-secretase 2 = target: T4, Beta-secretase 2 (Homo sapiens, UniProt Q9Y5Z0); test: as §1
T4 sequence (Q9Y5Z0 whole entry): T1 sequence (whole entry)

T3 sequence (P56817 whole entry): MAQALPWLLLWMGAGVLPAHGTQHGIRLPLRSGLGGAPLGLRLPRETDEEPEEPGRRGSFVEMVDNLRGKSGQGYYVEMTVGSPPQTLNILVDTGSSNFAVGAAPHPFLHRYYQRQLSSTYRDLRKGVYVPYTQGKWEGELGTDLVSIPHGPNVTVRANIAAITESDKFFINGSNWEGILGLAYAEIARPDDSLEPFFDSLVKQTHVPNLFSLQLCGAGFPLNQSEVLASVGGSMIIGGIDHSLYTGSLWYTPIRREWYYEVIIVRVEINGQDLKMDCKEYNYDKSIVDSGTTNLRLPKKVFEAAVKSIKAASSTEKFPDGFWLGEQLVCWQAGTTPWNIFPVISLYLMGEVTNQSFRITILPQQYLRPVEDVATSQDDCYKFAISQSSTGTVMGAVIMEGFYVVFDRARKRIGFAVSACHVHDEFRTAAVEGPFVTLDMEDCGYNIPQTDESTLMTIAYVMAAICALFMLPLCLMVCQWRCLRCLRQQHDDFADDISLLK

SMILES | Activity [1] | IC50 (Renin) [nM] | IC50 (Beta-secretase 1 [2]) [nM] | IC50 (Beta-secretase 1 [3]) [nM] | IC50 (Beta-secretase 2) [nM]
C[C@@H](NC(=O)c1cc(C(=O)N[C@@H](Cc2ccccc2)[C@H](O)CNC(C)(C)C)cc(N(C)S(C)(=O)=O)c1)c1ccc(F)cc1 | inactive | > 50000 | 15 | 2120 | 
CCNC[C@@H](O)[C@H](Cc1ccccc1)NC(=O)c1cc(C(=O)N[C@H](C)c2ccc(F)cc2)cc(N(C)S(C)(=O)=O)c1 |  | > 50000 | 15 | 396 | 260
C[C@@H](NC(=O)c1cc(NS(C)(=O)=O)cc(C(=O)N[C@@H](Cc2ccccc2)C(O)CNC2CC2)c1)c1ccc(F)cc1 (some centres undefined) |  | > 50000 | 63 | 1180 | 210
C[C@@H](NC(=O)c1cc(C(=O)N[C@@H](Cc2ccccc2)[C@H](O)CN)cc(N(C)S(C)(=O)=O)c1)c1ccc(F)cc1 |  | > 50000 | 23 | 5390 | 443
CC(C)S(=O)(=O)N(C)c1cc(C(=O)N[C@@H](Cc2ccccc2)[C@H](O)CNC2CC2)cc(C(=O)N[C@H](C)c2ccccc2)c1 |  | > 50000 | 41 | 25 | 360

Continued, values first:

Activity [1] | IC50 (Renin) [nM] | IC50 (Beta-secretase 1 [2]) [nM] | IC50 (Beta-secretase 1 [3]) [nM] | IC50 (Beta-secretase 2) [nM] | SMILES
 | > 50000 |  |  |  | C[C@@H](NC(=O)c1cc(C(=O)N[C@@H](Cc2ccccc2)C(O)CNC2CC2)cc(N(C)S(C)(=O)=O)c1)c1ccccc1 (some centres undefined)
 | > 10000 | 10 | 19 | 69 | C[C@@H](NC(=O)c1cc(C(=O)N[C@@H](Cc2ccccc2)[C@H](O)CNC2CC2)cc(N(C)S(C)(=O)=O)c1)c1ccc(F)cc1
 | > 50000 | 14 | 9 | 110 | C[C@@H](NC(=O)c1cc(C(=O)N[C@@H](Cc2ccccc2)[C@H](O)CNC2CC2)cc(N(C)S(=O)(=O)N(C)C)c1)c1ccccc1
